Entries after “also recorded” stand apart in the source; their conditions may differ. Each block holds one molecule with its values, some of them ahead of it.
What was measured:
[1] = system: TOV-21G HDAC6-KO cells; test: Drug sensitivity of HDAC6-KO ovarian cancer cells; assay type: cell-based, human; conditions: ARID1A-mutant ovarian cancer cell line
[2] = system: HDAC6-KO HAP1 cells; conditions: cited from earlier work
[3] = system: multiple cancer types; test: OTS964 potency in cancer cell lines
[4] = system: CDK11B G579S / G579A cancer cells; test: Viability of CDK11B xDFG mutant cancer cells in OTS964; assay type: cell-based, human
[5] = system: A375 cells expressing H2B-mCherry; test: Mitotic progression after release from double-thymidine block into OTS964; assay type: cell-based, human
[6] = biological target: CDK11B (Homo sapiens, UniProt P21127); test: Binding of OTS964 to different CDKs
Chain of CDK11B (P21127 whole entry): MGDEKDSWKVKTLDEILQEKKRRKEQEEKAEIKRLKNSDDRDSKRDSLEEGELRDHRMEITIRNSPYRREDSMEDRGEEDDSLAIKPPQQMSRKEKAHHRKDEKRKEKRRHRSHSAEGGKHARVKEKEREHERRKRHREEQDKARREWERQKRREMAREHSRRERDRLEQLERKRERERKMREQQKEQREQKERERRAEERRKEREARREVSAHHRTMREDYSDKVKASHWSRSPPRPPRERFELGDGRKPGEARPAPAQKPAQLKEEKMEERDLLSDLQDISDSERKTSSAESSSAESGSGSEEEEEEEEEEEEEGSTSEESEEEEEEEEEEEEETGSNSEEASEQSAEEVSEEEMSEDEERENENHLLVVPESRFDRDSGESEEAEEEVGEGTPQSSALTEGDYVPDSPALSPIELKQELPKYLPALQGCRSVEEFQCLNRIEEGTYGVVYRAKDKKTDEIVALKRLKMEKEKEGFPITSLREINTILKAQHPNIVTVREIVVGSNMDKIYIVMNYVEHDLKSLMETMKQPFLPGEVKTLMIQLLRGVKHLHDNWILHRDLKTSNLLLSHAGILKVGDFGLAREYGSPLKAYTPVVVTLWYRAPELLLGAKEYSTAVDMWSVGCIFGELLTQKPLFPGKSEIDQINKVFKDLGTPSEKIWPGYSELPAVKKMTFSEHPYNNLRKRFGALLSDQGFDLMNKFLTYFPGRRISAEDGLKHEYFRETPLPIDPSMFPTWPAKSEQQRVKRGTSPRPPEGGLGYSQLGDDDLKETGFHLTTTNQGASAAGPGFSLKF

[7] = system: MAPK14/p38α knockout clones; test: Sensitivity of MAPK14/p38α knockout clones to chemotherapy agents; assay type: cell-based, human; conditions: multiple cell lines
[8] = system: OTS964-resistant HCT116 clones; test: Paclitaxel sensitivity of OTS964-resistant clones; conditions: HCT116 clones resistant to OTS964
[9] = system: HDAC6 knockout clones; test: Sensitivity of HDAC6 knockout clones to chemotherapy agents; assay type: cell-based, human; conditions: HDAC6 knockout versus control clones
[10] = system: MCF7 cells; conditions: caspase 3-deficient breast cancer cell line; cited from earlier work
[11] = system: CASP3-KO lines; test: Dose-response of Rosa26 and CASP3-KO cells with putative caspase-3 activators; assay type: cell-based, human; conditions: four different cell lines incl. A375 and HCT116
[12] = system: FKBP12 KO clones; test: Rapamycin sensitivity of FKBP12 knockout clones; assay type: cell-based
[13] = system: Rosa26 and PAK4-KO melanoma cells; test: 7-point dose-response of Rosa26 and PAK4-KO cells with PF-3758309; assay type: cell-based; conditions: Homo sapiens, A-375
[14] = system: MELK-knockout (KO) cancer cells; conditions: cited from earlier work
[15] = system: p53 knockout cells; test: Nutlin-3a sensitivity after p53 knockout; assay type: cell-based
[16] = system: MPS1 mutant cells; assay type: cell-based; conditions: CRISPR-mediated HDR knock-in

SMILES: O=C(CCCCCCNC(=O)c1cnc(N(c2ccccc2)c2ccccc2)nc1)NO [ricolinostat]
sensitivity of TOV-21G HDAC6-KO cells [1]: remained sensitive
killing of HDAC6-KO HAP1 cells [2]: continued to kill; also recorded: kills

SMILES: Cc1cc(O)c(-c2ccc(C(C)CN(C)C)cc2)c2c1[nH]c(=O)c1sccc12 (stereo not drawn) [OTS964]
potency [3]: nanomolar potency
effect of CDK11B xDFG Gly→Ser (G579S) mutation on viability in drug ([4]; A375, A2780, DLD1 and MDA-MB-231 cells, lethal concentration of OTS964): sufficient to restore viability
effect of alanine substitution at CDK11B residue 579 on drug efficacy ([4]; CDK11B residue 579 alanine substitution): sufficient to decrease the efficacy
effect of G579S substitution on mitotic entry and progression in drug ([5]; A375 cells with CDK11B G579S, lethal concentration of OTS964): rescued normal mitotic entry and progression
effect on DNA replication ([5]; arrested cells: 4C DNA content, no 53BP1-foci): did not perturb DNA replication
effect on cell cycle ([5]; lethal concentration of OTS964, release from double-thymidine block): arrested in G2
effect on mitotic progression ([5]; low concentration of OTS964, release from double-thymidine block): delayed nuclear envelope breakdown and progressed slowly through mitosis
Kd [6]: 40 nM

SMILES: N.N.O=C([O-])C1(C(=O)[O-])CCC1.[Pt+2] [carboplatin]
sensitivity of MAPK14/p38α knockout clones versus Rosa26 control clones [7]: as sensitive

SMILES: Cn1nnc2c(C(N)=O)ncn2c1=O [temozolomide]
sensitivity of MAPK14/p38α knockout clones versus Rosa26 control clones [7]: as sensitive

SMILES: CC(C)C[C@H](NC(=O)[C@H](Cc1ccccc1)NC(=O)c1cnccn1)B(O)O [bortezomib]
sensitivity of MAPK14/p38α knockout clones versus Rosa26 control clones [7]: as sensitive

SMILES: O=C(CCCCCCNC(=O)c1cnc(N(c2ccccc2)c2ccccc2Cl)nc1)NO [citarinostat]
sensitivity of TOV-21G HDAC6-KO cells [1]: remained sensitive

SMILES: CC(=O)O[C@H]1C(=O)[C@@]2(C)[C@H]([C@H](OC(=O)c3ccccc3)[C@]3(O)C[C@H](OC(=O)[C@H](O)[C@@H](NC(=O)c4ccccc4)c4ccccc4)C(C)=C1C3(C)C)[C@]1(OC(C)=O)CO[C@@H]1C[C@@H]2O [paclitaxel]
sensitivity of OTS964-resistant clones [8]: remained sensitive
effect of loss of HDAC6 on drug sensitivity [9]: failed to sensitize

SMILES: C=CCc1cccc(/C=N/NC(=O)CN2CCN(Cc3ccccc3)CC2)c1O [PAC-1]
IC50 value in MCF7 cells compared to caspase 3-expressing cell lines [10]: higher
sensitivity of CASP3-KO lines compared to Rosa26 controls [11]: identical sensitivity

SMILES: CO[C@H]1C[C@@H]2CC[C@@H](C)[C@@](O)(O2)C(=O)C(=O)N2CCCC[C@H]2C(=O)O[C@H]([C@H](C)C[C@@H]2CC[C@@H](O)[C@H](OC)C2)CC(=O)[C@H](C)/C=C(\C)[C@@H](O)[C@@H](OC)C(=O)[C@H](C)C[C@H](C)/C=C/C=C/C=C/1C [rapamycin]
effect of FKBP12 knockout on drug sensitivity [12]: increased resistance

SMILES: Nc1ccn([C@@H]2O[C@H](CO)[C@@H](O)C2(F)F)c(=O)n1 [gemcitabine]
sensitivity of MAPK14/p38α knockout clones versus Rosa26 control clones [7]: as sensitive

GI50 [13]: ~9 nM
SMILES: Cc1nc(Nc2[nH]nc3c2CN(C(=O)N[C@H](CN(C)C)c2ccccc2)C3(C)C)c2sccc2n1 [PF-3758309]

SMILES: CC(=O)c1cnc2ccc(-c3cc(Cl)c(O)c(Cl)c3)nc2c1N[C@H]1CC[C@H](CN(C)C)CC1 [OTS167]
killing of MELK-KO cancer cells [14]: no decrease in potency

SMILES: COc1ccc(C2=N[C@@H](c3ccc(Cl)cc3)[C@@H](c3ccc(Cl)cc3)N2C(=O)N2CCNC(=O)C2)c(OC(C)C)c1 [nutlin-3a]
effect of p53 knockout on drug sensitivity [15]: conferred resistance

SMILES: COc1cc(OC2CCN(C)CC2)ccc1Nc1ncc2c(n1)n(C1CCCC1)c(=O)n2C [AZ3146]
effect of MPS1 kinase domain missense mutation on drug sensitivity [16]: capable of granting resistance
